The values that follow come from patent US9668988B2, “Controlled release oral pharmaceutical dosage forms comprising MGBG” (Pathologica LLC, priority 2011, dated 2017).

For data set [1], the system named is carrageenan-induced paw edema. The data set is described as follows: murine carrageenan-induced paw edema model. It is filed as in vivo, mice. Particulars: PO BID (totaling 60 mg/kg/day). The procedure:
(§1) In both the murine carrageenan-induced paw edema and hyperalgesia models, the top efficacious dose of MGBG is 30 mg/kg PO BID (totaling 60 mg/kg/day). Based upon this dosing paradigm in mice, at least two methods to estimate the equivalent dosing in humans may be used.
(§2) In the murine carrageenan models, we also observed efficacy of MGBG at lower doses, including 3 mg/kg PO BID and 10 mg/kg PO BID, which would proportionally convert to human doses of ˜0.42 mg/kg/day and ˜1.2 mg/kg/day.
A general note: Carrageenan injected into the paw causes an acute inflammation.

The test system of data set [2] is carrageenan-induced hyperalgesia. The data set is described as follows: murine carrageenan-induced hyperalgesia model. It is filed as in vivo, mice. To be noted: PO BID (totaling 60 mg/kg/day). The procedure:
as §1, §2

A further data set relates to beagle dogs. The data set is described as follows: In vivo evaluation of enterically coated capsules: tolerability / clinical observations. Particulars: single oral doses 10, 30, 100 mg/kg. An excerpt:
A comparative study of single, escalating doses of enterically coated MGBG capsules was undertaken in order to ascertain the feasibility and pharmacologic effect of delaying release of MGBG until the capsule has passed the stomach. […] Six male beagle dogs aged approximately 4 years 8 months to 5 years 6 months and weighing 10.95 to 12.85 kg (Covance Research Products) were weighed, acclimatized, and randomly assigned to treatment groups as shown below in Table 5.
The test article was administered once at each dose level during the study orally via capsule. Duplicate sets of enteric-coated capsules were prepared for each animal at each dose and evaluated for dissolution. The duplicate sample was placed in a 0.1 N HCl solution, and stirred using a magnetic stir bar and stir plate, for at least two hours. Triplicate samples of the acidic dissolution media were collected for analysis of MGBG content. The capsule was transferred to a phosphate buffer solution (pH 6.8), and stirred using a magnetic stir bar and stir plate, for approximately one hour. The capsule was visually inspected for signs of deformation. […]
Observations for morbidity, mortality, injury, and the availability of food and water were conducted twice daily for all animals. […] On occasion, clinical observations were recorded at unscheduled intervals. Body weights were measured and recorded on Days 1-4, 5, 12, and 32.

The nature of data set [3]: Multi-species allometric scaling to predict human pharmacokinetic parameters. Particulars: predicted human, ORAL, based on Mouse, Dog, Rhesus. On the set-up: species or system humans. The source says:
Multi-species allometric scaling based on pharmacokinetic parameters was employed to calculate predicted pharmacokinetic parameters in humans according to methods known in the art. See, e.g., Ings R M, “Interspecies scaling and comparisons in drug development and toxicokinetics,” Xenobiotica, 1990 November; 20(11):1201-31 and Khor, S P et al., “Dihydropyrimidine dehydrogenase inactivation and 5-fluorouracil pharmacokinetics: allometric scaling of animal data, pharmacokinetics and toxicodynamics of 5-fluorouracil in humans,” Cancer Chemother Pharmacol (1997) 39(3): 833-38. Expected values are given below in Table 2.

Broadly, the CL/F is clearance divided by bioavailability, as obtained after extravascular dosing. For the molecule `CC(/C=N/NC(=N)N)=N\NC(=N)N` [MGBG, 1,1′[methylethanediylidene]dinitrilodiguanidine], in data set [1], the top efficacious dose was 30 mg/kg. Further, in data set [2], the top efficacious dose is listed as 30 mg/kg. In addition, the tolerability / survival result in the data set with beagle dogs is “All dose levels were tolerated with all animals surviving to study termination”. Besides, in data set [3], the “CL/F” value was 1.25 L/h/kg, the “V/F” value is reported as 41.6 L/kg and the “t1/2” value is listed as 23.0 h. Besides, in data set [3] (Rat), the “CL/F” value is 1.26 L/h/kg, the “V/F” value is recorded as 42.4 L/kg and the “t1/2” value is recorded as 23.3 h.
